# Laboratory results reported in patent US4931553A, “Platinum-polymer complexes and their use as antitumor agents” (priority 1988, dated 1990).
# Legend:
# [1] = Aqueous solubility of polymeric platinum prodrugs; format: physicochemical; details: for Solubility at RT: room temperature; for Aqueous solubility / Appearance: Table I; for Appearance: appearance of the aqueous solution; for Solubility of the complex: temperature not stated
# From the text: Three polyacrylic acid polymers of weight average molecular weight 2000, 5000, 15,000 were used as ligands for complexation with Pt(DACH)(NO3)2 to determine the effect of molecular weight on the physical properties and antitumor properties of the complexes. […] In addition to polyacrylic acids, polymethacrylic acid of 15,000 weight average molecular weight and isotactic and syndiotactic polymethacrylic acid polymers of about 5000 Mw were used as ligands. The polyacrylates were complexed with Pt(DACH)(NO3)2 in aqueous solution at pH 4-6.
# [2] = tested on: L1210 murine tumor; assay: L1210 murine tumor model in BDF1 mice (T/C% and cures); format: in vivo
# Method: Some of the specific compounds of the examples above were tested by NCI against L1210 murine tumor model in BDF1 mice. The tumored mice were injected ip with solutions of compounds on days 1, 5, and 9 after the cell innoculum. The results of the experiments were evaluated on day 30 and are expressed as the quotient of the median survival time in days of test animals divided by median day of death of the untreated control mice, multiplied by 100 (T/C%). Mice with no sign of tumor on day 30 are considered as cured.
# T/C = Ratio of test evaluation to control evaluation expressed as
# percentage. More precisely, T/C = Median survival time of test animals
# × 100 (Median survival time of control).
# [3] = tested on: CA - 755 Adenocarcinoma; assay: Inhibition of tumor weight, CA-755 Adenocarcinoma implanted subcutaneously; format: in vivo, mice; details: day 30
# Method: (§1) In addition to the L1210 tumor line, Pt(trans-DACH)carboxyamylose (Pt:Polymer=1:6) was screened against additional murine tumor models. In these experiments, tumor of a known weight was implanted subcutaneously to the mice. The mice were then treated with the compound on day 1, 5, 9 schedule. On day 30, the tumors were reweighed and the results are expressed as percent inhibition of tumor weight.
# [4] = tested on: Lewis Lung; assay: Inhibition of tumor weight, Lewis Lung implanted subcutaneously; format: in vivo, mice; details: day 30
# Method: as §1
# [5] = tested on: x5563 Plasma Cell Myeloma; assay: Inhibition of tumor weight, x5563 Plasma Cell Myeloma implanted subcutaneously; format: in vivo, mice; details: day 30
# Method: as §1
# [6] = tested on: M5 ovarian Carcinoma; assay: Inhibition of tumor weight, M5 ovarian Carcinoma implanted subcutaneously; format: in vivo, mice; details: day 30
# Method: as §1
# [7] = tested on: tumors responsive to cisplatin and/or DACH-Pt and bisplatinum complex therapy; assay: Anti-tumor activity (statement for the pyran copolymer complex); details: in vivo
# [8] = tested on: malignancies in humans; details: in vivo; cited from earlier work
# [9] = tested on: animal tumors; details: in vivo; cited from earlier work
# [10] = cited from earlier work
# [11] = Aqueous solubility of polymeric platinum prodrugs; format: physicochemical; details: Table I; for Appearance: appearance of the aqueous solution
# [12] = Table 2, 10 mg/kg, ip days 1, 5, 9, day 30
# [13] = Table 2, 10 mg/kg, ip days 1, 5, 9, no sign of tumor on day 30
# [14] = Table 2, 20 mg/kg, ip days 1, 5, 9, day 30
# [15] = Table 2, 20 mg/kg, ip days 1, 5, 9, no sign of tumor on day 30
substance,measurement,setting,value
"Pt(trans-DACH)Carboxy Dextran, 11,700 Mw (58% Degree of Oxidation) [Example 12]",Solubility at RT,[1],100 mg/mL
Pt(trans-DACH)polyacrylate (2000 Mw) [Example 1],Solubility in water (in words),[1]; water,very soluble in water
Pt(trans-DACH)Carboxy Amylopectin (176.000 Mw) [Example 7 (freeze-dried)],Solubility at 50° C.,[1],25 mg/mL
"Pt(trans DACH)Carboxy amylopectin (176,000 Mw) [Example 17]",Aqueous solubility,[1],725 mg/mL
same,Appearance,[1],clear
same,Solubility of the complex,[1],greater than 25 mg per ml
same,T/C,[2]; [12],357%
same,Cures,[2]; [13],3/6
same,T/C,[2]; [14],261%
same,Cures,[2]; [15],1/6
"Pt(trans-DACH)Carboxy Dextran Sulfate (6,000 Mw) [Example 11]",Solubility at RT,[1],50 mg/mL
"Pt(trans-DACH)Carboxy Dextran (47,000 Mw) [Example 10]",Solubility in water at room temperature and up to 50° C. (in words),"[1]; water, room temperature and up to 50° C.",insoluble in water at room temperature and up to 50 °C
"Pt(trans-DACH)Carboxy Amylose (4,800 Mw) [Example 6]",Solubility at 50° C.,[1],20 mg/mL
Pt(trans-DACH)Carboxy Polygalacturonic Acid [Example 14],Solubility in aqueous solution (in words),[1]; aqueous solution,Insoluble in aqueous solution
Pt(trans-DACH)Carboxy Amylose (176.000 Mw) [Example 5],% Inh. of tumor weight,"[3]; dose 5, days 1, 5, 9",69%
same,% Inh. of tumor weight,"[3]; dose 10, days 1, 5, 9",81%
same,% Inh. of tumor weight,"[3]; dose 20, days 1, 5, 9",94%
same,% Inh. of tumor weight,"[4]; dose 1.25, days 1, 5, 9",20%
same,% Inh. of tumor weight,"[4]; dose 2.5, days 1, 5, 9",37%
same,% Inh. of tumor weight,"[4]; dose 5, days 1, 5, 9",34%
same,Aqueous solubility,[1],10 mg/mL
same,Appearance,[1],clear
same,T/C,[2]; [12],269%
same,Cures,[2]; [13],1/6
same,T/C,[2]; [14],269%
same,Cures,[2]; [15],2/6
same,T/C,"[2]; Table 2, 40 mg/kg, ip days 1, 5, 9, day 30",292%
same,Cures,"[2]; Table 2, 40 mg/kg, ip days 1, 5, 9, no sign of tumor on day 30",2/6
same,% Inh. of tumor weight,"[5]; dose 5, days 1, 5, 9",100%
same,% Inh. of tumor weight,"[5]; dose 10, days 1, 5, 9",100%
same,% Inh. of tumor weight,"[5]; dose 20, days 1, 5, 9",100%
same,% Inh. of tumor weight,"[6]; dose 5, days 1, 5, 9",64%
same,% Inh. of tumor weight,"[6]; dose 10, days 1, 5, 9",86%
same,% Inh. of tumor weight,"[6]; dose 20, days 1, 5, 9",99%
"Pt(trans-DACH)Carboxy Dextran (40,000 Mw) [Example 18]",Aqueous solubility,[1],730 mg/mL
same,Appearance,[1],clear
same,Solubility of the complex,[1],greater than 30 mg per ml
Pt(trans-DACH)Carboxy Amylose (50% degree of Oxidation) [Example 13],Solubility at 50° C.,[1],25 mg/mL
Pt(trans-DACH)Polyacrylate (5000 Mw) [Example 2],Solubility in water (in words),[1]; water,very soluble in water
(trans-DACH) Pyran Copolymer Complex [Example 19],Anti-tumor activity (in words),[7],exhibits anti-tumor activity
Pt(trans-DACH)CO oxyalginic Acid (75.000 Mw) [Example 15],Solubility in 10% sodium bicarbonate solution,"[1]; 10% sodium bicarbonate, 40° C.",25 mg/mL
"Pt(trans-DACH)Carboxyamylose (176,000 Mw) [Example 16]",Aqueous solubility,[1],725 mg/mL
same,Appearance,[1],clear
same,Solubility of the complex on slight warming,[1]; on slight warming,greater than 25 mg per ml
cis-[Pt(NH3)2 Cl2 ] [cisplatin],Use in human malignancies (in words),[8],used successfully in treating certain types of malignancies in humans
same,Effectiveness against animal tumors (in words),[9],effective against several types of animal tumors
same,Water solubility,[10]; in water,about 1 mg/ml
same,T/C,"[2]; Table 3, 5 mg/kg",175 ± 5
"Pt(trans-DACH)Carboxy Dextran (21,200 Mw) [Example 9]",Solubility at RT,[1],100 mg/mL
Pt(trans-DACH)Carboxy Dextran (11.700 Mw) [Example 8],Aqueous solubility,[11]; 2,25 mg/mL
same,Appearance,[11]; 2,cloudy
same,Solubility at 50° C.,[1],25 mg/mL
Pt(trans-DACH)Carboxy Dextran (11.700 Mw),Aqueous solubility,[11]; 6,100 mg/mL
same,Appearance,[11]; 6,clear
DACH-Pt(OH2)Cl2 (IV),Solubility of platinum-amine complexes (at most sparingly soluble),[10]; at most sparingly soluble,< 1 mg/mL
Pt(trans-DACH)Carboxy Amylopectin (176.000 Mw) [Example 7],Aqueous solubility,[1],25 mg/mL
same,Appearance,[1],clear
same,T/C,[2]; [12],337%
same,Cures,[2]; [13],4/6
same,T/C,[2]; [14],314%
same,Cures,[2]; [15],2/6
same,Cures,"[2]; Table 3, 10 mg/kg",4/6
same,T/C,"[2]; Table 3, 10 mg/kg",337
same,Cures,"[2]; Table 3, 20 mg/kg",2/6
same,T/C,"[2]; Table 3, 20 mg/kg",314
